Columns and labels:
Plasma [1] = experiment: Drug metabolism in Wistar rat plasma assessed as retention time by HPLC-DAD analysis; format: ADME, cell-free
Plasma [2] = experiment: Drug recovery in Wistar rat plasma at 2000 ng/ml by HPLC-DAD analysis; format: ADME, cell-free

Retention_time (Plasma [1]): 9.5 min | Drug recovery (Plasma [2]): 85.1%
Compound: O=c1c(-c2ccc(O)cc2)coc2cc(O[C@@H]3O[C@H](CO)[C@@H](O)[C@H](O)[C@H]3O)ccc12 [DAIDZIN]

Reference: ChEMBL document CHEMBL3525933 (Drug Metab Dispos, 2012)
